Measured values: patent US20190298717A1 (BOARD OF REGENTS, THE UNIVERSITY OF TEXAS SYSTEM, priority 2016, published 2019)
“Also recorded” adds a separate entry of the source.

Assays:
[1] = test system: GCLc, GCLm, HO-1, and NQO-1; settings: SH-SY5Y, 24 h
Protocol: GSH is regulated by the rate-limiting enzyme GCL consisted of GCLc and GCLm subunits. […] The inventors then used extracellular lactate dehydrogenase cytotoxicity assay to measure cell survival.
(§1) Western Blot Analysis. Protein expression was determined by Western blot analysis. Equal amount of protein from each sample was run in Tris-glycine SDS PAGE gel, followed by transferring to PVDF membrane. After blocking the membrane with 5% milk for 1 hour at room temperature, the membrane was incubated further for 2 hours with antibodies specific for target proteins: Nrf2, pNrf2(S40) from Novus (Littleton, Colo.); Keap1, HO-1, NQO1, GCLc, GCLm and lamin B1 from Cell Signaling (Danvers, Mass.); GAPDH from Santa Cruz (Dallas, Tex.); β-Actin from Thermo Fisher (Waltham, Mass.). The membrane was subsequently incubated with species-specific HRP-conjugated secondary antibody followed by incubation with chemiluminescence substrate and imaging. The band intensity of each of the target proteins was quantified using ImageQuant software (GE Healthcare, Sweden). Western blot analysis on worm lystaes was done similarly. […] Equal amounts of protein were run on the gel and SKN-1 protein level was detected using anti-GFP antibody.

SH-SY5Y cells [2] = test system: SH-SY5Y cells
Text: (§2) Results are expressed as means±SD from three independent experiments. […] Cell lysates were then subjected to Western blot analysis.
(§3) A cell titer glow luminescence assay was used to measure cell cytotoxicity. […] LC3, microtubule-associated protein 1 light chain 3, which is a homologue of Apg8p essential for autophagy in yeast, is processed posttranslationally into LC3-I in cytosol. LC3-I is then converted into LC3-II, which associates with autophagosome membranes. The ratio of LC3-II/LC3-I determines the status of the autophagy process.

LC3 = settings: 0, 5, 10 μM, ± bafilomycin 20 nM, 4 hours
Text: as §2, §3

[3] = test system: NMNAT-1, SIRT1, SIRT5 and COX-IV
Text: Data were normalized to actin. […] The intensity of the bands was normalized to actin. Data are mean±SEM of triplicate measurements.

C. elegans = test: Rotenone stress test in worms; assay type: in vivo
Text: The inventors again used rotenone to elicit PD-like changes.
Rotenone stress test. […] After 3 days young adult worms were transferred to fresh NGM plates either preloaded with rotenone alone or rotenone plus any of the abovementioned compounds. Every worm was subjected to prodding test with a worm pick every day. A worm was scored as dead when not responding to three repeated proddings. Survival curve was plotted using Prism 7.

[4] = test system: HeLa cells expressing EGFP-HD103Q; settings: 48 hours
Text: The fraction of EGFP-positive cells expressing aggregates under different conditions were plotted as odds ratios taking Ctrl value as 1. Error bars show 95% confidence interval. […] Error bars show SD.

SH-SY5Y cells [5] = test: H2O2-EC50 of hydralazine and its analogs (protection from H2O2 stress); assay type: cell-based; settings: Homo sapiens
Protocol: To generate intracellular aldehydes, the inventors treated human neuroblastoma cell line (SH-SY5Y) with 100 μM hydrogen peroxide (H2O2) for 24 h. Carbonyl groups were quantified using 2,4-DNPH (dinitrophenylhydrazine) assay.
Cell Viability and Cytotoxicity Assay. Cell growth was analyzed using the MTT cell viability assay. Briefly, at the end of incubation/treatment, MTT reagent was diluted in culture medium and aliquoted into each well. After incubation for 2 hours, the medium was aspirated and DMSO was aliquoted into each well to disrupt the cells and dissolve the intracellular MTT dyes. Absorbance was read at 570 nm wavelength in a 96-well plate reader. Cell toxicity was detected using a LDH cell toxicity assay kit (Promega, Fitchburg Wis.). This is a coupled enzymatic assay that detects a visible color signal initially described by Nachlas et. al. The reagent contained excess concentrations of lactate and NAD+as substrates to drive the LDH reaction and produce NADH. In the presence of diaphorase, NADH drives the enzyme-catalyzed conversion of iodonitro-tetrazolium violet to a red formazan product. Briefly, DMEM medium was withdrawn from each well of the plate after treatment and briefly centrifuged to get rid of floating cells or cell debris. Then, the medium supernatant was mixed with equal volume of substrate/enzyme mixture included in the kit (lactate, NAD+, diaphorase and iodonitro-tetrazolium violet), followed by incubation at room temperature for 15 minutes before the addition of acetic acid to cease the reaction. The absorbance was read at 490 nm in a 96-well plate reader. […] Cell viability assay was performed using CellTiter-Glo assay.

Nrf2 = test system: Nrf2
Protocol: The inventors quantified Nrf2 protein in treated cells as a first step towards validating the prediction of the Nrf2 pathway.
Nrf2 phosphorylation on serine 40 is a regulatory modification required for Nrf2 translocation to nucleus and downstream protein activation.
as §1
Cell Fractionation. Nuclear and cytoplasmic fractions were separated using the protocol and NE-PER Nuclear and Cytoplasmic Extraction Reagents provided by […]. Briefly, the cells were harvested and washed with ice-cold PBS buffer. The cells were resuspended in ice-cold CER-I buffer and incubated on ice for 10 minutes, followed by addition of CER-II buffer and incubation for one more minute on ice. The lysate was centrifuged at 16,000 g for 5 minutes. The supernatant was the cytoplasmic fraction. The pellet obtained was lysed in ice-cold NER buffer to obtain nuclear protein fractions.

HEKTauP301S cells = settings: 20 μM Aβ (1-42), 5 and 10 μM, 24 hours
Protocol: (§4) The data represents as percent cell viability normalized to DMSO treated control cells. The values are mean percent of two biological experiments performed in six replicates. […] After treatment Western blot analysis was performed to check the levels of p-GSK3β and total GSK3β in addition to p-Tau and total Tau level. […] Densitometry values were normalized using actin as internal control. All western blot analysis (FIG. 19B, 19C) values are mean±SD from three biological independent experiments (shown in the right panel).
(§5) To mimic the cellular environment of AD disease a stable HEK293 cell line (HEKTauP301S) overexpressing mutated full length Tau (P301S) was used.

GSK3β and Tau = test system: GSK3β and Tau
Protocol: as §4, §5

[6] = HEKTauP301S, 500 nM Aβ (1-42), 10 μM, 24 hours

NNc1nncc2ccccc12 [Hydralazine]
HO-1 upregulation [1]: 30% | NQO-1 upregulation [1]: 40% | expression of GCLc, GCLm, HO-1, and NQO-1 ([1]; Western blotting): significant increase in expression | protection against oxidative stress under proteasomal inhibition by MG132 (SH-SY5Y cells [2]; MG132 10 μM, H2O2 100 μM, 4 hours): does not have an impact | protection against oxidative stress under autophagy inhibition with bafilomycin (SH-SY5Y cells [2]; bafilomycin 20 nM, H2O2 100 μM, 4 hours): significantly reduces the ability of hydralazine to protect cells | concentration at which no toxicity was observed (SH-SY5Y cells [2]; human, 48 h): up to 25 μM | concentration with significant decrease in cell viability compared to control (SH-SY5Y cells [2]; human, 48 h): ≥ 50 µM | ratio of LC3-II/LC3-I (LC3): increase in the ratio of LC3-II/LC3-I | transcription level of NMNAT-1, SIRT1, SIRT5 (qRT-PCR) ([3]; 20 μM, 12 hours): increased the transcription level | NMNAT-1, SIRT1, SIRT5 protein (Western blot) ([3]; 10 and 20 μM): up-regulated at the protein level | level of COX-IV ([3]; after 48 hours): significant increase | protection against rotenone-induced death (C. elegans; 100 μM pretreatment, rotenone 50 μM): protected from rotenone; also recorded: significantly protected | protection against rotenone in skn-1(zu135) mutant compared to N2 (C. elegans; skn-1(zu135)): sharply decreased | EGFP-HD103Q poly Q aggregates [4]: disappearance of higher order poly Q aggregates | EC50 (SH-SY5Y cells [5]): 6.78 µM | increase of phosphorylation of Nrf2 on serine 40 in the nuclear compartment (Nrf2; SH-SY5Y): 25% | phosphorylation of cytosolic Nrf2 (Nrf2; SH-SY5Y): no change was observed | increase in Nrf2 level compared to untreated cells (Nrf2; SH-SY5Y, 10 μM, 24 h, Western blotting): about 20% | cytosolic Nrf2 fraction (Nrf2; SH-SY5Y, 10, 20 μM): remained unchanged | nuclear localization of Nrf2 (Nrf2; SH-SY5Y, 10, 20 μM): significantly increased | viability under Aβ (1-42)-induced toxicity (HEKTauP301S cells): protects Tau-overexpressing cells | phosphorylation level of GSK3β in control HEK293 cells (GSK3β and Tau; HEKT293 cells as control): not able to detect a significant upregulation | Aβ-induced Tau phosphorylation (GSK3β and Tau; [6]): inhibits Aβ-induced Tau phosphorylation | phosphorylation of GSK3β (GSK3β and Tau; [6]): upregulates the phosphorylation of GSK3β
